Reference: patent US9156827B2, “Anticancer agent” (THE UNIVERSITY OF TOKYO, priority 2010, dated 2015)
Structures can show the parent of a compound that is named as a salt.

What was measured:
pim-1 kinase = pim-1 kinase (Homo sapiens, UniProt P11309); test: Measurement of pim-1 kinase inhibitory activity (fluorescent substrate peptide, capillary electrophoresis); type: biochemical; details: 0.1 μM of each compound, 30 μM ATP, 1.5 μM substrate peptide, room temperature 2 hours
Protocol: Measurement of Pim-1 Kinase Inhibitory Activity
The result of the reaction was determined by quantifying the substrate and the phosphorylated reaction product separated by capillary electrophoresis based on difference in charges of the substances (EZ Reader II, Caliper Life Sciences, was used).

[1] = system: human acute myeloid leukemia MV4.11 cells; test: Cell proliferation-suppressing activity, fluorescence method (Alamar Blue assay); type: cell-based; details: 48 h, compound 1 μM, Alamar Blue assay two days after inoculation, Table 5
Protocol: Measurement of Cell Proliferation-Suppressing Activity (Fluorescence Method)
Each compound was added to a 96-well microtiter plate at a final concentration of 1 μM, then human acute myeloid leukemia MV4.11 cells (10^4 cells) were inoculated, and the Alamar Blue assay was performed two days after the inoculation (measurement of fluorescence: Ex. 535 nm, Em. 590 nm) to measure cell proliferation-suppressing activity.

[2] = system: Human acute myeloid leukemia MV4-11 cells; test: Cell proliferation-suppressing activity, chromogenic method (MTT assay); type: cell-based; details: 72 h, compound 1 μM, MTT assay three days after addition, Table 4
Protocol: Measurement of Cell Proliferation-Suppressing Activity (Chromogenic Method)
Human acute myeloid leukemia MV4-11 cells (10^4 cells) were inoculated on a 96-well microtiter plate, each compound was added at a final concentration of 1 μM 24 hours afterward, and MTT assay was performed three days after the addition of the compound to measure the cell proliferation-suppressing activity.

Sequence of pim-1 kinase (P11309 whole entry): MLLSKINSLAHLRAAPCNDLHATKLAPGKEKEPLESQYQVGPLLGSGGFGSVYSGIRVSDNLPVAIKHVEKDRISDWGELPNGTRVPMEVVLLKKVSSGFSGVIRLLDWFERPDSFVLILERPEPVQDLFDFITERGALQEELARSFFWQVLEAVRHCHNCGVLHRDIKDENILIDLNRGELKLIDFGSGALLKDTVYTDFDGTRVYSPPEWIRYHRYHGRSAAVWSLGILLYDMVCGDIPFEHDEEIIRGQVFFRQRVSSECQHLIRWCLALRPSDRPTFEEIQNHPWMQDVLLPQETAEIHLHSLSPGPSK

| SMILES | inhibition at 0.1 µM (pim-1 kinase; Table 1) [%] | inhibition at 0.1 µM (pim-1 kinase; Table 2) [%] | inhibition at 1 µM [1] [%] | inhibition at 1 µM [2] [%] |
| --- | --- | --- | --- | --- |
| O=C1/C(=C/c2cn(S(=O)(=O)c3ccc(C(F)(F)F)cc3)c3ccccc23)Oc2c1ccc(O)c2CN1CCNCC1 [Compound A34, (Z)-6-Hydroxy-7-(piperazin-1-ylmethyl)-2-({1-[4-(trifluoromethyl)phenylsulfonyl]-1H-indol-3-yl}methylene)benzofuran-3(2H)-one dihydrochloride] | 98 |  | 58 |  |
| O=C1/C(=C/c2cn(S(=O)(=O)c3ccc(Cl)cc3)c3ccccc23)Oc2c1ccc(O)c2CN1CCNCC1 [Compound A35, (Z)-{[1-(4-Chlorophenylsulfonyl)-1H-indol-3-yl]methylene}-6-hydroxy-7-(piperazin-1-ylmethyl)benzofuran-3(2H)-one dihydrochloride] | 96 |  | 48 |  |
| O=C1/C(=C/c2c[nH]c3ccccc23)Oc2c1cc(Cl)c(O)c2CN1CCNCC1 [Compound A12, (Z)-2-[(1H-Indol-3-yl)methylene]-5-chloro-6-hydroxy-7-(piperazin-1-ylmethyl)benzofuran-3(2H)-one dihydrochloride] | 81 |  | 87 |  |
| Cc1ccc(S(=O)(=O)n2cc(/C=C3\Oc4c(ccc(O)c4CN4CCNCC4)C3=O)c3ccccc32)cc1 [Compound A33, (Z)-6-Hydroxy-7-(piperazin-1-ylmethyl)-2-[(1-tosyl-1H-indol-3-yl)methylene]benzofuran-3(2H)-one dihydrochloride] | 94 |  | 32 |  |
| Nc1ccc2c(/C=C3\Oc4c(ccc(O)c4CN4CCNCC4)C3=O)c[nH]c2c1 [Compound A25, (Z)-2-[(6-Amino-1H-indol-3-yl)methylene]-6-hydroxy-7-(piperazin-1-ylmethyl)benzofuran-3(2H)-one trihydrochloride] | 83 |  | 20 |  |
| Cc1ccc2[nH]cc(/C=C3\Oc4c(ccc(O)c4CN4CCNCC4)C3=O)c2c1 [Compound A18, (Z)-6-Hydroxy-2-[(5-methyl-1H-indol-3-yl)methylene]-7-(piperazin-1-ylmethyl)benzofuran-3(2H)-one dihydrochloride] | 95 |  | 71 |  |

Continued, in another order:

| inhibition at 0.1 µM (pim-1 kinase; Table 1) [%] | inhibition at 0.1 µM (pim-1 kinase; Table 2) [%] | SMILES | inhibition at 1 µM [1] [%] | inhibition at 1 µM [2] [%] |
| --- | --- | --- | --- | --- |
| 99 |  | O=C1/C(=C/c2cn(S(=O)(=O)c3cccc(Cl)c3Cl)c3ccccc23)Oc2c1ccc(O)c2CN1CCNCC1 [Compound A38, (Z)-2-{[1-(2,3-Dichlorophenylsulfonyl)-1H-indol-3-yl]methylene}-6-hydroxy-7-(piperazin-1-ylmethyl)benzofuran-3(2H)-one dihydrochloride] | 43 |  |
| 99 |  | O=C1/C(=C/c2cn(S(=O)(=O)c3c(Cl)cccc3Cl)c3ccccc23)Oc2c1ccc(O)c2CN1CCNCC1 [Compound A37, (Z)-2-{[1-(2,6-Dichlorophenylsulfonyl)-1H-indol-3-yl]methylene}-6-hydroxy-7-(piperazin-1-ylmethyl)benzofuran-3(2H)-one dihydrochloride] | 55 |  |
| 99 |  | O=C1/C(=C/c2cn(S(=O)(=O)c3ccccc3Cl)c3ccccc23)Oc2c1ccc(O)c2CN1CCNCC1 [Compound A36, (Z)-2-{[1-(2-Chlorophenylsulfonyl)-1H-indol-3-yl]methylene}-6-hydroxy-7-(piperazin-1-ylmethyl)benzofuran-3(2H)-one dihydrochloride] | 39 |  |
| 99 |  | O=C1/C(=C/c2cn(S(=O)(=O)c3ccc(Cl)cc3Cl)c3ccccc23)Oc2c1ccc(O)c2CN1CCNCC1 [Compound A39, (Z)-2-{[1-(2,4-Dichlorophenylsulfonyl)-1H-indol-3-yl]methylene}-6-hydroxy-7-(piperazin-1-ylmethyl)benzofuran-3(2H)-one dihydrochloride] | 51 |  |
| 83 |  | O=C1CN(Cc2c(O)ccc3c2O/C(=C\c2c[nH]c4ncccc24)C3=O)CCN1 [Compound A45, (Z)-4-({2-[(1H-Pyrrolo[2,3-b]pyridin-3-yl)methylene]-6-hydroxy-3-oxo-2,3-dihydrobenzofuran-7-yl}methyl)piperazin-2-one] | 15 |  |
| 27 |  | O=C1/C(=C/c2c[nH]c3ncccc23)Oc2c1ccc(O)c2CN1CCOCC1 [Compound A44, (Z)-2-[(1H-Pyrrolo[2,3-b]pyridin-3-yl)methylene]-6-hydroxy-7-(morpholinomethyl)benzofuran-3(2H)-one] | 46 |  |
|  | 100 | COc1ccc2c(c1CN1CCNCC1)O/C(=C\c1n[nH]c3ccc(Br)cc13)C2=O [Compound B19, (Z)-2-[(5-Bromo-1H-indazol-3-yl)methylene]-6-methoxy-7-(piperazin-1-ylmethyl)benzofuran-3(2H)-one] |  | 94 |
